Reference: patent US11421044B2, “Nitric oxide-releasing antibacterial polymers and scaffolds fabricated therefrom and methods pertaining thereto” (THE UNIVERSITY OF NORTH CAROLINA AT CHAPEL HILL, priority 2018, dated 2022)

Legend:
Test in all cases: Planktonic bactericidal assay, 4 h
Conditions in all cases: 4 h exposure
E. faecalis = format: cell-based, Enterococcus faecalis (ATCC #29212)
Experimental: (§1) Planktonic bactericidal assay. Bacterial cultures of P. aeruginosa, E. coli, E. faecalis, S. aureus, multidrug-resistant (MDR) P. aeruginosa, and methicillin-resistant S. aureus were grown from frozen (−80° C.) stocks overnight in TSB (3 mL) at 37° C. An aliquot (1 mL) of the overnight solution was recultured in fresh TSB (50 mL) to a concentration of 10^8 CFU mL^−1 and subsequently diluted to 10^6 CFU mL^−1 in PBS (10 mM, pH 7.4). Weighed samples of control (non-NO-releasing) HA, NO-releasing HA, or neomycin sulfate were dissolved in PBS and titrated with 1 M HCl to adjust the pH to 7.4.
(§2) Samples were added to a 96-well polystyrene plate and serially diluted in PBS so that each well contained 100 μL of control HA, NO-releasing HA, or neomycin. Bacterial solution containing 10^6 CFU mL^−1 (100 μL; 1 vol % TSB supplemented PBS) was added to each well, giving final HA concentrations in the range of 0.25 to 32 mg mL^−1 or neomycin concentrations from 0.5 to 1024 μg mL^−1. The 96-well plate was then incubated at 37° C. for 4 h with gentle shaking. […] Viability of bacteria following treatment with HA or neomycin was determined using a Flash & Go colony counter (IUL; Farmingdale, N.Y.). […] The NO dose required for bactericidal action was calculated by multiplying the MBC4 h of the NO-releasing HA samples (mg mL^−1) with the total NO released in PBS (pH 7.4; μmol NO mg^−1 HA) at 4 h. […]

E. coli = format: cell-based, Escherichia coli (ATCC #43888)
Experimental: as §1, §2

MRSA = format: cell-based, methicillin-resistant S. aureus (ATCC #33591)
Experimental: as §1, §2

S. aureus = format: cell-based, Staphylococcus aureus (ATCC #29213)
Experimental: as §1, §2

MDR-P. aeruginosa = format: cell-based, multidrug-resistant P. aeruginosa (ATCC #BAA-2110)
Experimental: as §1, §2

P. aeruginosa = format: cell-based, Pseudomonas aeruginosa (ATCC #47085)
Experimental: as §1, §2

neomycin sulfate
Dose of neomycin for 3-log reduction (E. faecalis): 64 μg mL^−1
Dose of neomycin for 3-log reduction (E. coli): 1 μg mL^−1
Dose of neomycin for 3-log reduction (MRSA): >1024 μg mL^−1
Dose of neomycin for 3-log reduction (S. aureus): 2 μg mL^−1
Dose of neomycin for 3-log reduction (MDR-P. aeruginosa): 128 μg mL^−1
Dose of neomycin for 3-log reduction (P. aeruginosa): 32 μg mL^−1
